From patent US7807781B2, “Inhibitors of serine protease activity and their use in methods and compositions for treatment of viral infections” (The Regents of the University of Colorado, priority 1999, dated 2010)

B1: UTI: Human urinary trypsin inhibitor, a protein indistinguishable from ITI (protein, UniProt P02760 206-352, looked up)
Inter-alpha-trypsin inhibitor …: AVLPQEEEGSGGGQLVTEVTKKEDSCQLGYSAGPCMGMTSRYFYNGTSMACETFQYGGCMGNGNNFVTEKECLQTCRTVAACNLPIVRGPCRAFIQLWAFDAVKGKCVLFPYGGCQGNGNKFYSEKECREYCGVPGDGDEELLRFSN
modifications: Inter-alpha-trypsin inhibitor light chain

Test system: HIV-1 production in U1 cells
Assay: U1 monocytic cell assay, IL-18-induced HIV-1 p24 antigen
Format: cell-based
Details: doses comparable to the composition of the invention (FIG. 6)
Excerpt: U1 monocytic cell assay. U1 cells are obtained from the AIDS Research and Reference Reagent Program, National Institute of Allergy and Infectious Diseases, NIH. U1 cells are maintained in T-175 polystyrene flasks (Falcon, Becton Dickinson, Franklin Lakes, N.J.) in medium and used when in log phase growth. Cells are counted in a hemacytometer, examined for viability by Trypan blue exclusion (>95% for all experiments) and resuspended in fresh medium at 2×10^6 per ml. Two-hundred fifty […] are added to wells of 24-well polystyrene tissue culture plates (Falcon), followed by the addition of medium or AAT to produce the final concentration to be tested in a volume of […]. After 1.0 hr of incubation (37° C., 5% CO2), 50 ml of medium (control) or stimulus diluted in medium are added to wells to produce the final concentration of stimulus to be tested. The final culture volumes are […] and contained 1×10^6 cells per ml. After 48 hr of incubation (37° C. and 5% CO2) 50 ml of 10% (vol/vol) Triton-X-100 (Fisher Scientific, Fair Lawn, N.J.) is added to each culture (final concentration of 1% vol/vol), and cultures are frozen and thawed once. This is followed by assay for HIV-1 p24 antigen by ELISA with a lower limit of detection of 31 pg/ml (NCI-Frederick Cancer Research and Development Center, Frederick, Md.). The disruption of cells due to the addition of Triton-X-100 and the freeze-thaw cycle produced cell lysates and enabled assessment of total (secreted and cell-associated) production of p24 antigen.
Data are presented as means±SEM. Group means are compared by ANOVA using Fisher's least significant difference. For data expressed as percent change, the values for p24 in control cultures (medium alone) are subtracted from those for each culture-containing stimulus. The p24 concentrations in cultures conducted in the presence of stimulus alone are set at 100%. Percent p24 in cultures containing stimulus and AAT are calculated by dividing the measured p24 by that present in cultures containing stimulus alone. The resultant fraction is expressed as a percent.
The U1 cell line is derived from human monocytic U937 cells into which 2 copies of HIV-1 provirus are incorporated into host genome. Exposing U1 cells to pro-inflammatory cytokines such as IL-18, IL-1, IL-6 and TNF, phorbol esters or hyperosmolarity results in the induction of HIV-1 as assessed by p24 antigen. Stimulation of U1 cells with 0.5 nM IL-18 induced large amounts of p24 antigen after 48 hr of incubation in 3 separate experiments. U1 cells cultured in medium alone (control) contained a mean of 41.3±11.5 pg/ml p24 antigen, which is increased 150-fold to 6,235±1,775 pg/ml p24 following stimulation with IL-18. […] At 1, 2 and 3 mg/ml AAT, the percent reductions observed compared to stimulation with IL-18 alone are 65±1.8, 93±3.0 and 98±1%, respectively.

Question: Which anti-HIV activity does the source give for “Prolastin: commercially available purified variant of AAT sold by Bayer, used as control AAT preparation” here?
Answer: fails to display anti-HIV activity

Same assay, conditions: same experimental condition as in Example 1 (FIG. 11)

Question: Which anti-HIV effect does the source give for `Cc1cccc(Cc2nnc(C(=O)C(NC(=O)[C@@H]3CCCN3C(=O)[C@@H](NC(=O)OCc3ccccc3)C(C)C)C(C)C)o2)c1` (stereo partly shown) [P3 inh] here?
Answer: significant anti-HIV effect

Test system: HIV-1 strain A018A in MAGI-CCR-5 cells
Assay: not given
Format: cell-based
Details: compared with FVYLI (FIG. 4); alone or in combination; not shown

Question: With “AVFLM: short peptide related to C-terminal pentapeptide of AAT” as the molecule, how does the “effect on HIV production in MAGI cells” value read?
Answer: more or less similar effect

Question: Which “effect on HIV production in MAGI cells” value does the source give for “FAFLM: short peptide related to C-terminal pentapeptide of AAT” here?
Answer: more or less similar effect

Question: With “FIIMI: short peptide related to C-terminal pentapeptide of AAT” as the molecule, how does the “effect on HIV production in MAGI cells” value read?
Answer: more or less similar effect

Question: With “FLFAV: short peptide related to C-terminal pentapeptide of AAT” as the molecule, how does the “effect on HIV production in MAGI cells” value read?
Answer: more or less similar effect

Question: Which “effect on HIV production in MAGI cells” value does the source give for “FLFCI: short peptide related to C-terminal pentapeptide of AAT” here?
Answer: more or less similar effect

Question: Which “effect on HIV production in MAGI cells” value does the source give for “FLFFI: short peptide related to C-terminal pentapeptide of AAT” here?
Answer: more or less similar effect

Question: Which “effect on HIV production in MAGI cells” value does the source give for “FLFLI: short peptide related to C-terminal pentapeptide of AAT” here?
Answer: more or less similar effect

Question: Which “effect on HIV production in MAGI cells” value does the source give for “FLFVL: short peptide related to C-terminal pentapeptide of AAT” here?
Answer: more or less similar effect

Question: With “FLFVV: short peptide related to C-terminal pentapeptide of AAT” as the molecule, how does the “effect on HIV production in MAGI cells” value read?
Answer: more or less similar effect

Question: Which “effect on HIV production in MAGI cells” value does the source give for “FLMFI: short peptide related to C-terminal pentapeptide of AAT” here?
Answer: more or less similar effect

Question: Which “effect on HIV production in MAGI cells” value does the source give for “FLMII: short peptide related to C-terminal pentapeptide of AAT” here?
Answer: more or less similar effect

Question: Which “effect on HIV production in MAGI cells” value does the source give for “FLVFI: short peptide related to C-terminal pentapeptide of AAT” here?
Answer: more or less similar effect

Question: Which “effect on HIV production in MAGI cells” value does the source give for “FMLLI: short peptide related to C-terminal pentapeptide of AAT” here?
Answer: more or less similar effect

Question: With “FVALM: short peptide related to C-terminal pentapeptide of AAT” as the molecule, how does the “effect on HIV production in MAGI cells” value read?
Answer: more or less similar effect

Question: Which “effect on HIV production in MAGI cells” value does the source give for “FVFAM: short peptide related to C-terminal pentapeptide of AAT” here?
Answer: more or less similar effect

Question: With “FVFLA: short peptide related to C-terminal pentapeptide of AAT” as the molecule, how does the “effect on HIV production in MAGI cells” value read?
Answer: more or less similar effect

Question: With “FVFLM: short peptide related to C-terminal pentapeptide of AAT” as the molecule, how does the “effect on HIV production in MAGI cells” value read?
Answer: more or less similar effect

Question: Which “effect on HIV production in MAGI cells” value does the source give for “FVYLI: carboxyterminal peptide derived but not necessarily identical to a respective C-terminal pentapeptide from AAT” here?
Answer: more or less similar effect

Test system: NF-κB
Assay: IL-18-induced NF-κB expression
Format: cell-based
Details: compared with IL-18 alone (lane 4)

Question: With `Cc1cccc(Cc2nnc(C(=O)C(NC(=O)[C@@H]3CCCN3C(=O)[C@@H](NC(=O)OCc3ccccc3)C(C)C)C(C)C)o2)c1` (stereo partly shown) [P3 inh] as the molecule, how does the “IL-18-induced NF-κB expression” value read?
Answer: reduced

Test system: HIV-infected CCRF-CEM and uninfected Molt-4 cells
Assay: not given
Details: cited from earlier work

Question: Which “concentration range of dose-dependent inhibition of syncytium formation” value does the source give for B1 here?
Answer: 0.1 to 1 mM
